Experimental data: US10676478B2, “7-(thiazol-5-yl) pyrrolopyrimidine compound as TLR7 agonist” (CHIA TAI TIANQING PHARMACEUTICAL GROUP CO., LTD., priority 2015, dated 2020)
pEC50: −log10 of the molar value. Read-outs that look alike come from different tables or passages of the source.

Key:
[1] = target: T1, Toll-like receptor 7 (HEK-blue hTLR7 cell) (Homo sapiens, UniProt Q9NYK1); assay: Toll-like receptor 7 in vitro receptor binding activity (HEK-blue hTLR7 cell, Quanti-Blue alkaline phosphatase reporter); assay type: cell-based; conditions: 24 h incubation, read-out: TLR7 EC50
T1 construct: host or cells: HEK-blue hTLR7 cell (HEK293-derived reporter line)
T1 sequence (Q9NYK1 27-1049): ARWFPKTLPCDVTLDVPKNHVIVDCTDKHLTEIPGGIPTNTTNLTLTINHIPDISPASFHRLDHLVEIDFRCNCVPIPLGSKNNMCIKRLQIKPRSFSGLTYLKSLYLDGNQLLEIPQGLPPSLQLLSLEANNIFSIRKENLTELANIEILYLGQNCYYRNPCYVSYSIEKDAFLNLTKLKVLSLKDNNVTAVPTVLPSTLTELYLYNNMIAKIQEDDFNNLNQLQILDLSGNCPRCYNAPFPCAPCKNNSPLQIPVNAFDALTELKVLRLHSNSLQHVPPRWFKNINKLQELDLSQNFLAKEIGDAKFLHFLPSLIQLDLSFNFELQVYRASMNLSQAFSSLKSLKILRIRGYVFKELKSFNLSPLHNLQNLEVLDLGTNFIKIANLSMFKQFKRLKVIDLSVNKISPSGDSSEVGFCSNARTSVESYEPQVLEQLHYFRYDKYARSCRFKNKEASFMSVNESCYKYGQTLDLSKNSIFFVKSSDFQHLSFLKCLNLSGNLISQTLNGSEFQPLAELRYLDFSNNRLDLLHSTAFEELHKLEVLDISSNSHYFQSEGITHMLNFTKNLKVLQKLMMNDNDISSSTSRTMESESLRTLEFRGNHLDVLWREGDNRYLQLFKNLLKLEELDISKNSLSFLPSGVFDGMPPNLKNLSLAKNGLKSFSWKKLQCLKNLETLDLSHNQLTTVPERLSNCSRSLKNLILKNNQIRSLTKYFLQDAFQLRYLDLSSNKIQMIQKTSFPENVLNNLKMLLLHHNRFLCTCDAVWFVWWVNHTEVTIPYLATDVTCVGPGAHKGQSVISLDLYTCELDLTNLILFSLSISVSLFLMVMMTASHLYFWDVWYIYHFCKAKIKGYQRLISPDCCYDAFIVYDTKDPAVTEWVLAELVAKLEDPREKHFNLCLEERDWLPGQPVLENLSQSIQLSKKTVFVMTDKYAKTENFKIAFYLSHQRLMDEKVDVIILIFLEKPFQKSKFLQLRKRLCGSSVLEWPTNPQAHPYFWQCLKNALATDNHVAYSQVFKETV
Method: (§1) Experimental Example 1: Toll-Like Receptor 7 and Toll-Like Receptor 8 In Vitro Receptor Binding Activity
(§2) HEK-blue hTLR7 cell and HEK-blue hTLR8 cell (available from InvivoGen)
(§3) The GS-9620 and R848 used have the following structures. GS-9620 can be prepared according the process disclosed in US20100143301; R848 is purchased from ABGENT (Catalog: IMG-2208, 0.5 mg).
(§4) The compounds were gradient diluted with DMSO in 3-fold using liquid work station POD starting at a concentration of 10 mmol/L and 10 points were diluted (2nd column to 11th column, and each point was duplicated). At 12th column, 1 μL of 5 mg/mL positive compound R848 was added as positive control; and at 1 st column, 1 μL of DMSO was added as negative control. Each well contained 1 μL of DMSO.
(§5) 2. The cells in cell culture flask were collected and the cell density was diluted to 250,000 cells/mL.
(§6) 3. 200 μL (50,000 cells/well) of cell suspension was added into prepared compound plate and the final concentration of DMSO in each well was 0.5%.
(§7) 4. The culture plates containing cells and the compounds were incubated in CO2 incubator for 24 h at 37° C., 5% CO2.
(§8) 5. After 24 h incubation, 20 μL of supernatant was removed from each well of the cell culture plates to a 96-well transparent assay plate. […]
(§9) 6. After 1 h, the content of alkaline phosphatase in 20 μL of supernatant was determined using Microplate Reader at OD650. […]

[2] = target: T2, Toll-like receptor 8 (HEK-blue hTLR8 cell) (Homo sapiens, UniProt Q9NR97); assay: Toll-like receptor 8 in vitro receptor binding activity (HEK-blue hTLR8 cell, Quanti-Blue alkaline phosphatase reporter); assay type: cell-based; conditions: 24 h incubation, read-out: TLR8 EC50
T2 construct: host or cells: HEK-blue hTLR8 cell (HEK293-derived reporter line)
T2 sequence (Q9NR97 27-1041): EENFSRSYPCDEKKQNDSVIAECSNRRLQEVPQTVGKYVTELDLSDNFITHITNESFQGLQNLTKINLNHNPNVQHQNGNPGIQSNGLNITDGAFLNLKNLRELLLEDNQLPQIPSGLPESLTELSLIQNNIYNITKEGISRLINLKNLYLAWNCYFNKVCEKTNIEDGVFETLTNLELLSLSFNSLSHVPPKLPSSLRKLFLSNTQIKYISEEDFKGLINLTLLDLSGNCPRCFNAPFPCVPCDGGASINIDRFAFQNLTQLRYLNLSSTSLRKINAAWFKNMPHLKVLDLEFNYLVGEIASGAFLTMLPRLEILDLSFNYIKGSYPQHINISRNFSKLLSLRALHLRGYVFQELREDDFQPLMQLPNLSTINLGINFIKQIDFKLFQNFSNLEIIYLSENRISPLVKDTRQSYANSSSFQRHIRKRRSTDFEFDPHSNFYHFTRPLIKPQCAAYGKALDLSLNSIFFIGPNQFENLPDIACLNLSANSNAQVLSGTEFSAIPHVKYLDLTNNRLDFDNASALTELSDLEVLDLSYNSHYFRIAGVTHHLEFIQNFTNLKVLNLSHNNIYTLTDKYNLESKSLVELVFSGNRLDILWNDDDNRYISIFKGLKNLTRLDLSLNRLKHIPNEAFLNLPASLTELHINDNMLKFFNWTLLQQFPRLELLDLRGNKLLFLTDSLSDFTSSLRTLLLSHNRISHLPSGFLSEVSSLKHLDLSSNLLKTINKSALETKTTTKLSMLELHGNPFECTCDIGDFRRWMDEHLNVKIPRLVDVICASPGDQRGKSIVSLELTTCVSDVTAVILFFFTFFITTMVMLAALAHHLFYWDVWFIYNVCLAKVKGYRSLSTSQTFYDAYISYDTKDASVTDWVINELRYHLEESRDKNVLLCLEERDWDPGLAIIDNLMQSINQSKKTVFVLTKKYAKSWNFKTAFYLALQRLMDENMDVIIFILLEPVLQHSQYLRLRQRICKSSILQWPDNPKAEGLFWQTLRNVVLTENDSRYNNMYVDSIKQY
Method: as §1, §2, §3, §4, §5, §6, §7, §8, §9

[3] = Pharmacokinetics assay in rat; assay type: in vivo, SD rats; parameters: Mean plasma drug concentration: unit not given here; conditions: for Cmax: read-out: C0 or Cmax; for half-life: read-out: T½ (converted)
Method: Experimental Example 2: Pharmacokinetics Assay in Rat
12 male SD rats were divided into 4 groups with 3 SD rats in each group. 2 groups of animals were administered by intravenous injection (IV) 1 mg/kg of the control Toll-like receptor 7 agonist GS-9620 and Example 1 compound as 10% hydroxypropyl-β-cyclodextrin aqueous solution (concentration is 0.5 mg/mL), respectively. The other 2 groups were administered orally (PO) 5 mg/kg of GS-9620 and 3 mg/kg of Example 1 compound as 0.5% methylcellulose/0.2% Tween 80 pure water suspension (concentration is 1 mg/mL). […] Each rat with oral administration was collected for whole blood samples which were prepared into plasma 15, 30 min and 1, 2, 4, 8, 24 h continuously after administration. The plasma concentrations of GS-9620 and Example 1 compound were determined with LC-MS/MS.

[4] = male, SD, plasma, 1 mg/kg, IV 1 mpk
[5] = male, SD, plasma, 3 mg/kg, PO 3 mpk

CCCCOc1nc(N)c2[nH]cc(Cc3cnc(CN4CCCC4)s3)c2n1 [Example 1, 2-butoxy-7-((2-(pyrrolidin-1-ylmethyl)thiazol-5-yl)methyl)-5H-pyrrolo[3,2-d]pyrimidin-4-amine]
pEC50 [1]: 6.34 | pEC50 [2]: 4.53 | Mean plasma drug concentration ([3]; IV 1 mpk, time 0.083 h): 500 | Mean plasma drug concentration ([3]; IV 1 mpk, time 0.25 h): 277 | Mean plasma drug concentration ([3]; IV 1 mpk, time 0.5 h): 197 | Mean plasma drug concentration ([3]; IV 1 mpk, time 1 h): 120 | Mean plasma drug concentration ([3]; IV 1 mpk, time 2 h): 66.1 | Mean plasma drug concentration ([3]; IV 1 mpk, time 4 h): 30.6 | Mean plasma drug concentration ([3]; IV 1 mpk, time 8 h): 13.1 | Mean plasma drug concentration ([3]; PO 3 mpk, time 0.25 h): 45.4 | Mean plasma drug concentration ([3]; PO 3 mpk, time 0.5 h): 52.0 | Mean plasma drug concentration ([3]; PO 3 mpk, time 1 h): 86.8 | Mean plasma drug concentration ([3]; PO 3 mpk, time 2 h): 113 | Mean plasma drug concentration ([3]; PO 3 mpk, time 4 h): 23.6 | Mean plasma drug concentration ([3]; PO 3 mpk, time 8 h): 5.64 | AUC(0-inf) [3, 4]: 0.573 µM·h | AUC(0-t) [3, 4]: 0.541 µM·h | clearance [3, 4]: 75.8 mL/min/kg | Cmax [3, 4]: 673 nM | half-life [3, 4]: 3.08 h | Vd ([3]; male, SD, plasma, 1 mg/kg, IV 1 mpk, read-out: Vdss): 13.5 L/kg | AUC(0-inf) [3, 5]: 0.325 µM·h | AUC(0-t) [3, 5]: 0.313 µM·h | Cmax [3, 5]: 148 nM | half-life [3, 5]: 1.54 h

CCCCOc1nc(N)c2c(n1)N(Cc1cccc(CN3CCCC3)c1)CC(=O)N2 [GS-9620, reference compound]
Mean plasma drug concentration ([3]; IV 1 mpk, time 0.083 h): 170 | Mean plasma drug concentration ([3]; IV 1 mpk, time 0.25 h): 102 | Mean plasma drug concentration ([3]; IV 1 mpk, time 0.5 h): 65.4 | Mean plasma drug concentration ([3]; IV 1 mpk, time 1 h): 48.1 | Mean plasma drug concentration ([3]; IV 1 mpk, time 2 h): 21.6 | Mean plasma drug concentration ([3]; IV 1 mpk, time 4 h): 13 | Mean plasma drug concentration ([3]; IV 1 mpk, time 8 h): 4.17 | Mean plasma drug concentration ([3]; PO 5 mpk, time 0.25 h): 56.3 | Mean plasma drug concentration ([3]; PO 5 mpk, time 0.5 h): 33.2 | Mean plasma drug concentration ([3]; PO 5 mpk, time 1 h): 83.4 | Mean plasma drug concentration ([3]; PO 5 mpk, time 2 h): 136 | Mean plasma drug concentration ([3]; PO 5 mpk, time 4 h): 16.7 | Mean plasma drug concentration ([3]; PO 5 mpk, time 8 h): 9.49
